The term IC50 denotes the concentration that inhibits the measured activity by half.

Here are results for 60 molecules from patent publication US20260158017A1, “KIF18A INHIBITOR” (WIGEN BIOMEDICINE TECHNOLOGY (SHANGHAI) CO., LTD., priority 2021, published 2026).

T1 sequence (Q8NI77 1-467): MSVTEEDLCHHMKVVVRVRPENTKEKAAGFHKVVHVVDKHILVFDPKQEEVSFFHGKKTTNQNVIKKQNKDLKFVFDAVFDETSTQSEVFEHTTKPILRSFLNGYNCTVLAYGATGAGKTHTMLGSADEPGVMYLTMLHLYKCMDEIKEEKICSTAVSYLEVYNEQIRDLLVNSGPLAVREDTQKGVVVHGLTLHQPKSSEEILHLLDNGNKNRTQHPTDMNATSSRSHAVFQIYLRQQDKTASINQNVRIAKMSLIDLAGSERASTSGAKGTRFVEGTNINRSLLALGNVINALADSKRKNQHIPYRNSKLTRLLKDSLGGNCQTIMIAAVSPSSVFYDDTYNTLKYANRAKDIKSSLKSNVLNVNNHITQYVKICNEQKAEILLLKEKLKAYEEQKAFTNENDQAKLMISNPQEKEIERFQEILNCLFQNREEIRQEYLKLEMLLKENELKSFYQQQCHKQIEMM
T1 sequence (P02550 whole entry partner): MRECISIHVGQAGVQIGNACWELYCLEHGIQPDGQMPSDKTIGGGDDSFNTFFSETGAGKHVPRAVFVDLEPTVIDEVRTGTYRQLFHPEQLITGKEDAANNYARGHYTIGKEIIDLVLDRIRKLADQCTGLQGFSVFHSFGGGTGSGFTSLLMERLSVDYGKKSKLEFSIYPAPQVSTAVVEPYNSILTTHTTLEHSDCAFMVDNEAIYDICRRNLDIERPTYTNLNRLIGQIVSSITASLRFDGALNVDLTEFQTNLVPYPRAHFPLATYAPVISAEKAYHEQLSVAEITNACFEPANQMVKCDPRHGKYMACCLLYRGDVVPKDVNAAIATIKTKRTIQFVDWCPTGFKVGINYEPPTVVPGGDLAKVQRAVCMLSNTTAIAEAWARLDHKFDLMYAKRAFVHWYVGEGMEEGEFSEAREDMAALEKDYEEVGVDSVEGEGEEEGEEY
T1 sequence (P02554 whole entry partner): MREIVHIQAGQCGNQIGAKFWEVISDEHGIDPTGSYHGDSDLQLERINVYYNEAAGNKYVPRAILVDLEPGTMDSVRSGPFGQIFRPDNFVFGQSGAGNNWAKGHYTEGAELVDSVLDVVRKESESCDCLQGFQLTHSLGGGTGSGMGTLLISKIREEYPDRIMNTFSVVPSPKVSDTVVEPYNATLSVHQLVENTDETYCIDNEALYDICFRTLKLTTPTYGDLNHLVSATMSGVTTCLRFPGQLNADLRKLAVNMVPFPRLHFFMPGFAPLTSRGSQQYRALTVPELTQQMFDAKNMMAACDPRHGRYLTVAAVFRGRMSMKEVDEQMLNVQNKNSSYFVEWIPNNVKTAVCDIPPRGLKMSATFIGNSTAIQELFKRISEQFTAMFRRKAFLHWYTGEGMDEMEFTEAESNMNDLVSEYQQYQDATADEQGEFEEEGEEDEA

This experiment addresses T1, Recombinant human KIF18A (1-467His-tagged) protein (Homo sapiens, UniProt Q8NI77).
T1 construct: Recombinant human KIF18A (1-467His-tagged) protein; His; made in house
Nature of the experiment: KIF18A enzyme assay (microtubule-stimulated ATPase activity, ADP-Glo). It is filed as biochemical. Particulars: 30 nM KIF18A, 75 μM ATP, 30 μg/mL pig microtubules; read-out: Inhibitory activity against KIF18A IC50. The procedure, abridged: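 Buffer 15 mM Tris pH 7.5, 10 mM MgCl2, 0.01% Pluronic F-68, 1 μM paclitaxel, 30 μg/mL pig microtubules; reactions at room temperature. IC50 from inhibition relative to DMSO.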
Turning to `COc1ccc(NC(=O)c2ccc(S(=O)(=O)NCCO)cc2N2CCC3(CC2)CC3)nc1N1CC2CC2C1` (stereo not drawn) [Compound 282], the IC50 was no more than 100 nM.
Then `COc1ccc(NC(=O)c2ccc(S(=O)(=O)NCCO)cc2N2CCC3(CC2)CC3)nc1NC(C)(C)CO` [Compound 283], with no more than 100 nM; and `COc1ccc(NC(=O)c2ccc(S(=O)(=O)NCCO)cc2N2CCC3(CC2)CC3)nc1N1CCOCC1` [Compound 284], with no more than 100 nM.
For the molecule `COc1ccc(NC(=O)c2ccc(S(=O)(=O)N[C@@H](C)CO)cc2N2CCC3(CC2)CC3)nc1N1CCC(F)(F)CC1` [Compound 285], the IC50 was no more than 100 nM.
Consider `COc1ccc(NC(=O)c2ccc(S(=O)(=O)N[C@H](C)CO)cc2N2CCC3(CC2)CC3)nc1N1CCC(F)(F)CC1` [Compound 286], for which the IC50 is no more than 100 nM.
Consider `COc1ccc(NC(=O)c2ccc(S(=O)(=O)N[C@@H](C)CO)cc2N2CCC3(CC2)CC3)nc1N1CCO[C@H](C)C1` [Compound 287], for which the concentration for half-maximal inhibition (IC50) is no more than 100 nM.
With `COc1ccc(NC(=O)c2ccc(S(=O)(=O)N[C@H](C)CO)cc2N2CCC3(CC2)CC3)nc1N1CCO[C@H](C)C1` [Compound 288] the figure was no more than 100 nM.
`COc1ccc(NC(=O)c2cnc(NS(=O)(=O)CCO)cc2N2CCC3(CC2)CC3)nc1N1CCO[C@H](C)C1` [Compound 290]: the IC50 was no more than 100 nM.
`COc1ccc(NC(=O)c2cnc(NS(=O)(=O)CCO)cc2N2CCC3(CC2)CC3)nc1N1CCO[C@@H](C)C1` [Compound 291]: the IC50 is no more than 100 nM.
For the molecule `COc1ccc(NC(=O)c2cnc(NS(=O)(=O)CCO)cc2N2CCC3(CC2)CC3)nc1N1CC(F)(F)C1` [Compound 292], the IC50 is no more than 100 nM.
With `COc1ccc(NC(=O)c2cnc(NS(=O)(=O)CCO)cc2N2CCC3(CC2)CC3)nc1OCCC(F)(F)F` [Compound 293] the figure was no more than 100 nM.
Turning to `COc1ccc(NC(=O)c2cnc(NS(=O)(=O)CCO)cc2N2CCC3(CC2)CC3)nc1N1CCC2(CC2)C1` [Compound 294], the IC50 is no more than 100 nM.
For `COc1ccc(NC(=O)c2cnc(NS(=O)(=O)CCO)cc2N2CCC3(CC2)CC3)nc1OC1CCC1` [Compound 295], the 50% inhibitory concentration (IC50) was no more than 100 nM.
Then `COc1ccc(NC(=O)c2cnc(NS(=O)(=O)CCO)cc2N2CCC3(CC2)CC3)nc1N1CCC(C)(F)C1` (stereo not drawn) [Compound 296], with no more than 100 nM.
Then `COc1ccc(NC(=O)c2cnc(NS(=O)(=O)CCO)cc2N2CCC3(CC2)CC3)nc1N1CCC(F)CC1` [Compound 297], with no more than 100 nM; and `COc1ccc(NC(=O)c2cnc(NS(=O)(=O)CCO)cc2N2CCC3(CC2)CC3)nc1N1CC2CC2C1` (stereo not drawn) [Compound 298], with no more than 100 nM; and `COc1ccc(NC(=O)c2cnc(NS(=O)(=O)CCO)cc2N2CCC3(CC2)CC3)nc1NC(C)(C)CO` [Compound 299], with no more than 100 nM.
With `COc1ccc(NC(=O)c2cnc(NS(=O)(=O)CCO)cc2N2CCC3(CC2)CC3)nc1N1CCOCC1` [Compound 300], the IC50 is no more than 100 nM.
With `COc1ccc(NC(=O)c2cnc(NS(=O)(=O)[C@@H](C)CO)cc2N2CCC3(CC2)CC3)nc1N1CCC(F)(F)CC1` [Compound 301], the IC50 was no more than 100 nM.
With `COc1ccc(NC(=O)c2cnc(NS(=O)(=O)[C@H](C)CO)cc2N2CCC3(CC2)CC3)nc1N1CCC(F)(F)CC1` [Compound 302] the figure was no more than 100 nM.
Then `COc1ccc(NC(=O)c2cnc(NS(=O)(=O)[C@@H](C)CO)cc2N2CCC3(CC2)CC3)nc1N1CCO[C@H](C)C1` [Compound 303], with no more than 100 nM; and `COc1ccc(NC(=O)c2cnc(NS(=O)(=O)[C@H](C)CO)cc2N2CCC3(CC2)CC3)nc1N1CCO[C@H](C)C1` [Compound 304], with no more than 100 nM.
With `COc1ccc(NC(=O)c2cnc(S(=O)(=O)NCCO)cc2N2CCC3(CC2)CC3)nc1N1CCO[C@H](C)C1` [Compound 306] the figure was no more than 100 nM; with `COc1ccc(NC(=O)c2cnc(S(=O)(=O)NCCO)cc2N2CCC3(CC2)CC3)nc1N1CCO[C@@H](C)C1` [Compound 307], no more than 100 nM; with `COc1ccc(NC(=O)c2cnc(S(=O)(=O)NCCO)cc2N2CCC3(CC2)CC3)nc1N1CC(F)(F)C1` [Compound 308], no more than 100 nM.
As for `COc1ccc(NC(=O)c2cnc(S(=O)(=O)NCCO)cc2N2CCC3(CC2)CC3)nc1OCCC(F)(F)F` [Compound 309], the IC50 is no more than 100 nM.
Regarding `COc1ccc(NC(=O)c2cnc(S(=O)(=O)NCCO)cc2N2CCC3(CC2)CC3)nc1N1CCC2(CC2)C1` [Compound 310], the IC50 was no more than 100 nM.
With `COc1ccc(NC(=O)c2cnc(S(=O)(=O)NCCO)cc2N2CCC3(CC2)CC3)nc1OC1CCC1` [Compound 311] the figure was no more than 100 nM; with `COc1ccc(NC(=O)c2cnc(S(=O)(=O)NCCO)cc2N2CCC3(CC2)CC3)nc1N1CCC(C)(F)C1` (stereo not drawn) [Compound 312], no more than 100 nM; with `COc1ccc(NC(=O)c2cnc(S(=O)(=O)NCCO)cc2N2CCC3(CC2)CC3)nc1N1CCC(F)CC1` [Compound 313], no more than 100 nM.
Then `COc1ccc(NC(=O)c2cnc(S(=O)(=O)NCCO)cc2N2CCC3(CC2)CC3)nc1N1CC2CC2C1` (stereo not drawn) [Compound 314], with no more than 100 nM; and `COc1ccc(NC(=O)c2cnc(S(=O)(=O)NCCO)cc2N2CCC3(CC2)CC3)nc1NC(C)(C)CO` [Compound 315], with no more than 100 nM; and `COc1ccc(NC(=O)c2cnc(S(=O)(=O)NCCO)cc2N2CCC3(CC2)CC3)nc1N1CCOCC1` [Compound 316], with no more than 100 nM.
With `COc1ccc(NC(=O)c2cnc(S(=O)(=O)N[C@@H](C)CO)cc2N2CCC3(CC2)CC3)nc1N1CCC(F)(F)CC1` [Compound 317] the figure was no more than 100 nM.
For the molecule `COc1ccc(NC(=O)c2cnc(S(=O)(=O)N[C@H](C)CO)cc2N2CCC3(CC2)CC3)nc1N1CCC(F)(F)CC1` [Compound 318], the IC50 was no more than 100 nM.
With `COc1ccc(NC(=O)c2cnc(S(=O)(=O)N[C@@H](C)CO)cc2N2CCC3(CC2)CC3)nc1N1CCO[C@H](C)C1` [Compound 319] the figure was no more than 100 nM.
With `COc1ccc(NC(=O)c2cnc(S(=O)(=O)N[C@H](C)CO)cc2N2CCC3(CC2)CC3)nc1N1CCO[C@H](C)C1` [Compound 320] the figure was no more than 100 nM; with `COc1ccc(C(=O)Nc2ccc(NS(=O)(=O)CCO)cc2N2CCC3(CC2)CC3)nc1N1CCO[C@H](C)C1` [Compound 322], no more than 100 nM; with `COc1ccc(C(=O)Nc2ccc(NS(=O)(=O)CCO)cc2N2CCC3(CC2)CC3)nc1N1CCO[C@@H](C)C1` [Compound 323], no more than 100 nM.
Then `COc1ccc(C(=O)Nc2ccc(NS(=O)(=O)CCO)cc2N2CCC3(CC2)CC3)nc1N1CC(F)(F)C1` [Compound 324], with no more than 100 nM; and `COc1ccc(C(=O)Nc2ccc(NS(=O)(=O)CCO)cc2N2CCC3(CC2)CC3)nc1OCCC(F)(F)F` [Compound 325], with no more than 100 nM; and `COc1ccc(C(=O)Nc2ccc(NS(=O)(=O)CCO)cc2N2CCC3(CC2)CC3)nc1N1CCC2(CC2)C1` [Compound 326], with no more than 100 nM.
On to `COc1ccc(C(=O)Nc2ccc(NS(=O)(=O)CCO)cc2N2CCC3(CC2)CC3)nc1OC1CCC1` [Compound 327], for which the IC50 is no more than 100 nM.
As for `COc1ccc(C(=O)Nc2ccc(NS(=O)(=O)CCO)cc2N2CCC3(CC2)CC3)nc1N1CCC(C)(F)C1` (stereo not drawn) [Compound 328], the IC50 was no more than 100 nM.
Turning to `COc1ccc(C(=O)Nc2ccc(NS(=O)(=O)CCO)cc2N2CCC3(CC2)CC3)nc1N1CCC(F)CC1` [Compound 329], the IC50 was no more than 100 nM.
Then `COc1ccc(C(=O)Nc2ccc(NS(=O)(=O)CCO)cc2N2CCC3(CC2)CC3)nc1N1CC2CC2C1` (stereo not drawn) [Compound 330], with no more than 100 nM; and `COc1ccc(C(=O)Nc2ccc(NS(=O)(=O)CCO)cc2N2CCC3(CC2)CC3)nc1NC(C)(C)CO` [Compound 331], with no more than 100 nM.
As for `COc1ccc(C(=O)Nc2ccc(NS(=O)(=O)CCO)cc2N2CCC3(CC2)CC3)nc1N1CCOCC1` [Compound 332], the IC50 was no more than 100 nM.
Regarding `COc1ccc(C(=O)Nc2ccc(NS(=O)(=O)[C@@H](C)CO)cc2N2CCC3(CC2)CC3)nc1N1CCC(F)(F)CC1` [Compound 333], the IC50 is no more than 100 nM.
With `COc1ccc(C(=O)Nc2ccc(NS(=O)(=O)[C@H](C)CO)cc2N2CCC3(CC2)CC3)nc1N1CCC(F)(F)CC1` [Compound 334] the figure was no more than 100 nM; with `COc1ccc(C(=O)Nc2ccc(NS(=O)(=O)[C@@H](C)CO)cc2N2CCC3(CC2)CC3)nc1N1CCO[C@H](C)C1` [Compound 335], no more than 100 nM.
For the molecule `COc1ccc(C(=O)Nc2ccc(NS(=O)(=O)[C@H](C)CO)cc2N2CCC3(CC2)CC3)nc1N1CCO[C@H](C)C1` [Compound 336], the IC50 was no more than 100 nM.
With `COc1ccc(C(=O)Nc2ccc(S(=O)(=O)NCCO)cc2N2CCC3(CC2)CC3)nc1N1CCO[C@H](C)C1` [Compound 338] the figure was no more than 100 nM; with `COc1ccc(C(=O)Nc2ccc(S(=O)(=O)NCCO)cc2N2CCC3(CC2)CC3)nc1N1CCO[C@@H](C)C1` [Compound 339], no more than 100 nM.
Then `COc1ccc(C(=O)Nc2ccc(S(=O)(=O)NCCO)cc2N2CCC3(CC2)CC3)nc1N1CC(F)(F)C1` [Compound 340], with no more than 100 nM.
With `COc1ccc(C(=O)Nc2ccc(S(=O)(=O)NCCO)cc2N2CCC3(CC2)CC3)nc1OCCC(F)(F)F` [Compound 341] the figure was no more than 100 nM; with `COc1ccc(C(=O)Nc2ccc(S(=O)(=O)NCCO)cc2N2CCC3(CC2)CC3)nc1N1CCC2(CC2)C1` [Compound 342], no more than 100 nM; with `COc1ccc(C(=O)Nc2ccc(S(=O)(=O)NCCO)cc2N2CCC3(CC2)CC3)nc1OC1CCC1` [Compound 343], no more than 100 nM.
As to `COc1ccc(C(=O)Nc2ccc(S(=O)(=O)NCCO)cc2N2CCC3(CC2)CC3)nc1N1CCC(C)(F)C1` (stereo not drawn) [Compound 344], the IC50 was no more than 100 nM.
For `COc1ccc(C(=O)Nc2ccc(S(=O)(=O)NCCO)cc2N2CCC3(CC2)CC3)nc1N1CCC(F)CC1` [Compound 345], the IC50 is no more than 100 nM.
